Data on 8 compounds can be found in patent US10420812B2, “Drug combinations and uses in treating a coughing condition” (Infirst Healthcare Limited, priority 2009, dated 2019).

Several values for one entry are separate records, joined by “and”; a condition that tells them apart may be missing. Equal entries are not always repeated.

The subject of one assay is cough. The conditions noted are these: clinical treatment; apparent success attributed to placebo effect (Ramsey et al.); cited from earlier work.
In assay [1] the test system is citric acid induced cough responses. As to the kind of experiment: Citric acid induced cough, theobromine and neuropathic pain agent (Example 9).
Assay [2] has the same test system. The experiment in a line: Citric acid induced cough, theobromine and NSAID (Example 8).
Assay [3] has the same test system. As to the kind of experiment: Citric acid induced cough, theobromine and ACE inhibitor (Example 11).
The test system is the same in assay [4]. The experiment in a line: Citric acid induced cough, oral and intratracheal theobromine (Example 2). To be noted: 30 min prior.
For assay [5] the test system is unchanged. The experiment in a line: Citric acid induced cough, theobromine and decongestant (Example 5). The class given is in vivo, guinea pig.
The test system is the same in assay [6]. As to the kind of experiment: Citric acid induced cough, theobromine and opiate antitussive agent (Example 4). In kind it is in vivo, guinea pig.
For assay [7] the test system is unchanged. As to the kind of experiment: Citric acid induced cough, theobromine and antihistamine (Example 6).
For assay [8] the test system is unchanged. The experiment in a line: Citric acid induced cough, theobromine and non-opiate antitussive agent (Example 3).
For assay [9] the test system is unchanged. The experiment in a line: Citric acid induced cough, theobromine and terpene (Example 10).
Assay [10] shares this test system. As to the kind of experiment: Citric acid induced cough, theobromine and expectorant (Example 7).
The test system of assay [11] is citric acid induced cough. The conditions noted are these: guinea-pigs (Minamizawa et al. 2006); cited from earlier work.
For the next assay, the system named is coughing condition. The experiment in a line: Treatment of a coughing condition, patient cases (Example 12). To be noted: person, after about 2 days. The class given is in vivo, human.
The test system of assay [12] is citric acid induced cough responses. The experiment in a line: Citric acid induced cough, oral theobromine (Example 1). The class given is in vivo, guinea pig. To be noted: 120 min prior to citric acid exposure.
[13] abbreviates: gabapentin 60 mg/kg p.o. only, 60 min prior.
[14] abbreviates: ibuprofen 30 mg/kg p.o. only, 60 min prior.
Setting [15] is: captopril 30 mg/kg p.o., 120 min prior.
The mark [16] stands for this setting: codeine 25 mg/kg i.p., 30 min prior.
Setting [17] is: guaifenesin 30 mg/kg p.o., 60 min prior.
Setting [18] is: theobromine 10 mg/kg p.o., 120 min prior.
Where [19] appears, read: theobromine 7 mg/kg p.o., 120 min prior.
[20] abbreviates: theobromine 10 mg/kg p.o., 30 min prior.
Setting [21] is: theobromine 30 mg/kg p.o., 120 min prior.

`COc1ccc2c(c1)[C@]13CCCC[C@@H]1[C@H](C2)N(C)CC3` [Dextromethorphan]: the “efficacy in treating cough” value in the assay on cough was “no efficacy”.

On to `NCC1(CC(=O)O)CCCCC1` [Gabapentin], for which, in assay [1] (setting [13]), the “onset time to the first cough” value was found to be 90 ± 6 s and the “total number of coughs” value was determined as 24±8 coughs.

Consider `CC(C)Cc1ccc(C(C)C(=O)O)cc1` (stereo not drawn) [Ibuprofen], for which, in assay [2] (setting [14]), the “onset time to the first cough” value came to 70 ± 5 s and the “total number of coughs” value came to 22±6 coughs.

With `C[C@H](CS)C(=O)N1CCC[C@H]1C(=O)O` [captopril], in assay [3] (setting [15]), the “onset time to the first cough” value was determined as 34 ± 12 s and the “total number of coughs” value amounted to 45±12 coughs.

For `COc1ccc2c3c1O[C@H]1[C@@H](O)C=C[C@H]4[C@@H](C2)N(C)CC[C@@]341` [codeine], the “Cough Events Mean Number” value in assay [4] (codeine 25 mg/kg i.p.) was found to be 5 ± 1 coughs; in assay [5] (setting [16]) it was 6 ± 1 coughs; in assay [6] (setting [16]), 6 ± 1 coughs; in assay [7] (setting [16]), 5 ± 1 coughs; in assay [8] (setting [16]), 7 ± 2 coughs. For the same compound, the “Cough Events Mean Onset Time” value in assay [4] (codeine 25 mg/kg i.p.) is 337 ± 51 s; in assay [5] (setting [16]), 195 ± 25 s; in assay [6] (setting [16]) it was 195 ± 33 s; in [7] (setting [16]), 236 ± 22 s; in assay [8] (setting [16]), 170 ± 32 s. For the same compound, the “number of citric acid induced coughs” value in [2] (setting [16]) is on record as 8±3 coughs; in assay [3] (setting [16]) it was 7±3 coughs; in [9] (setting [16]), 6±2 coughs; in assay [1] (setting [16]) it was 9±4 coughs. The “onset time to the first cough” value was determined as 150 ± 32 s in assay [2] (setting [16]), 170 ± 28 s in [3] (setting [16]), 170 ± 28 s in [9] (setting [16]) and 161 ± 31 s in assay [1] (setting [16]).

As to `COc1ccccc1OCC(O)CO` (stereo not drawn) [guaifenesin], in assay [10] (setting [17]), the “Cough Events Mean Number” value is 28 ± 3 coughs and the “Cough Events Mean Onset Time” value turned out to be 52 ± 10 s.

Consider `CN[C@@H](C)[C@@H](O)c1ccccc1` [pseudoephedrine], for which the “efficacy in the citric acid induced cough model” value in [11] is listed as “very limited efficacy”.

For the compound `Cn1cnc2c1c(=O)[nH]c(=O)n2C` [theobromine, 3,7-dihydro-3,7-dimethyl-1H-purine-2,6-dione], the “Cough Events Mean Number” value in assay [4] (theobromine 3 mg/kg i.t.) is 17 ± 2 coughs; in assay [4] (theobromine 10 mg/kg i.t.), 10.3±2 coughs and 10 ± 2 coughs; in [4] (theobromine 30 mg/kg i.t.), 6 ± 1 coughs; in [4] (theobromine 30 mg/kg p.o.) it was 12 ± 2 coughs; in assay [5] (setting [18]), 13 ± 3 coughs; in assay [6] (setting [19]) it was 19 ± 3 coughs. Moreover, the “Cough Events Mean Number” value in assay [10] (setting [20]) worked out at 15 ± 3 coughs; in [12] (theobromine 3 mg/kg p.o.), 25 ± 4 coughs; in assay [12] (theobromine 7 mg/kg p.o.), 18 ± 3 coughs; in [7] (setting [18]) it was 15 ± 2 coughs; in [8] (setting [18]), 13 ± 2 coughs. The “Cough Events Mean Onset Time” value in assay [4] (theobromine 3 mg/kg i.t.) is 115 ± 29 s; in [4] (theobromine 10 mg/kg i.t.), 134 ± 18 s; in assay [4] (theobromine 30 mg/kg i.t.) it was 210 ± 22 s; in assay [4] (theobromine 30 mg/kg p.o.) it was 126 ± 20 s; in [5] (setting [18]), 156 ± 15 s; in assay [6] (setting [19]) it was 91 ± 13 s. Further, the “Cough Events Mean Onset Time” value in assay [10] (setting [20]) stood at 126 ± 12 s; in assay [12] (theobromine 3 mg/kg p.o.), 73 ± 17 s; in [12] (theobromine 7 mg/kg p.o.), 98 ± 36 s; in [7] (setting [18]), 103 ± 15 s; in [8] (setting [18]), 139 ± 22 s. Also, the “coughing episodes as indicated by patient” value in the assay on coughing condition (cough as side-effect of ACE inhibitor medication, theobromine in conjunction with the ACE inhibitor) is “decreased coughing episodes”; with coughing condition (cough due to angiotensin II receptor antagonist medication, theobromine in conjunction with it) it was “decreased coughing episodes”. Besides, the “number of citric acid induced coughs” value in assay [2] (setting [18]) worked out at 15±3 coughs; in assay [3] (setting [21]) it was 10±4 coughs; in assay [9] (setting [18]), 14±5 coughs; in [1] (setting [18]), 14±4 coughs. Further, the “onset time to the first cough” value came out at 113 ± 15 s in assay [2] (setting [18]), 125 ± 22 s in assay [3] (setting [21]), 120 ± 23 s in [9] (setting [18]) and 108 ± 19 s in assay [1] (setting [18]).
